Marks after values point to notes of the source that are not given here.
Legend:
[1] = test system: syngenic and transgenic rats; experiment: Hepatic SSAT activity and polyamine pools after partial hepatectomy; assay type: in vivo, rat
Description: FIGS. 4a–4d. Hepatic polyamine pools in syngenic and transgenic rats after partial hepatectomy and methylspermidine. […] Three to five animals in each group. Me-spd, methylspermidine.
The production of transgenic Wistar rats (UKUR30) and mice (UKU181) harboring metallothionein-SSAT fusion gene (Suppola, S., Pietilä, M., Parkkinen, J. J., Korhonen, V. P., Alhonen, L., Halmekytö, M., Porter, C. W., and Jänne, J. (1999) Biochem. J. 338, 311–316) has been described earlier (Alhonen, L., Parkkinen, J. J., Keinänen, T., Sinervirta, R., Herzig, K. H., and Jänne, J. (2000) Proc. Natl. Acad. Sci. U.S.A. 97, 8290–8295; Lukkarinen, J., Gröhn, O., Sinervirta, R., Järvinen, A., Kauppinen, R. A., Jänne, J., and Alhonen, L. (1997) Stroke 28, 639–645). Partial hepatectomy was carried out according to the original method of Higgins and Anderson (Higgins, G. H., and Anderson, R. M. (1931) Arch. Pathol. 12, 186–202). Treatments before partial hepatectomy and the determination of DNA synthesis were carried out as in (Räsänen, T. L., Alhonen, L., Sinervirta, R., Keinänen, T., Herzig, K. H., Suppola, S., Khomutov, A. R., Vepsäläinen, J., and Jänne, J. (2002) J. Biol. Chem. 277, 39867–39872). […] The animals were sacrificed 24 h after the second MDL72527 injection and liver pieces were frozen in liquid nitrogen, homogenized in buffer (25 mM Tris-HCl pH 7.4, 0.1 mM EDTA, 1 mM DTT). An aliquot of the homogenates was used for the polyamine assays. The homogenates were centrifuged (at 13 000×g, for 30 min, at 4° C.) and the supernatants were used for the enzyme activity assays. The Institutional Animal Care and Use Committee of the University of Kuopio and by the Provincial Government approved animal experiments.
FIG. 4 depicts polyamine concentrations in syngenic and transgenic rats at 24 h after partial hepatectomy. […] This in all likelihood reflected the enhanced SSAT activity. […] In transgenic animals, the low spermidine pool was further decreased in response to the operation (FIG. 4c).
Liver regeneration could be restored by a prior administration of α-methylspermidine (Räsänen, T. L., Alhonen, L., Sinervirta, R., Keinänen, T., Herzig, K. H., Suppola, S., Khomutov, A. R., Vepsäläinen, J., and Jänne, J. (2002) J. Biol. Chem. 277, 39867–39872). FIG. 10. depicts thymidine incorporation in livers of transgenic rats before and 24 h after partial hepatectomy. […] Table 3 lists the liver pools of polyamines and their analogues before and after partial hepatectomy. […] The analogues were readily accumulated in the livers.

SSAT transgenic rats = experiment: Stability of the analogues in the liver of SSAT transgenic rats without or with MDL72527 (hepatic polyamine pools); assay type: in vivo, rat; details: for metabolic stability / conversion in the liver in vivo: without MDL72527; for conversion to α-methylspermidine in the liver: with MDL72527 50 mg/kg i.p. twice
Experimental: FIGS. 8A-8D. Hepatic polyamine pools in SSAT transgenic rats treated with methylated polyamine analogues without or with MDL72527. The rats were injected twice with MDL72527 (50 mg/kg i.p.) at 16-h interval. The polyamine analogues (25 mg/kg i.p.) were injected 2 and 8 h later. The animals were sacrificed 24 h after the last MDL72527 injection. There were three to four animals in each group. Put, putrescine; […] Spd, spermidine; Me-Spd, α-methylspermidine; […] The production of transgenic Wistar rats (UKUR30) and mice (UKU181) harboring metallothionein-SSAT fusion gene (Suppola, […]., Porter, C. W., and Jänne, J. (1999) Biochem. […] (2000) Proc. Natl. Acad. Sci. U.S.A. 97, 8290-8295; Lukkarinen, […]., and Alhonen, L. (1997) Stroke 28, 639-645). Partial hepatectomy was carried out according to the original method of Higgins and Anderson (Higgins, G. H., and Anderson, R. M. (1931) Arch. Pathol. 12, 186-202). Treatments before partial hepatectomy and the determination of DNA synthesis were carried out as in ([…]., Suppola, […]., and […]. Biol. Chem. 277, 39867-39872). Transgenic 10 weeks old male rats were injected twice with MDL72527 (50 mg/kg i.p.) at 16-h interval to inactivate PAO according to (Bolkenius, F. N., Bey, P., and Seiler, N. (1985) Biochim. Biophys. […] An aliquot of the homogenates was used for the polyamine assays. The homogenates were centrifuged (at 13 000×g, for 30 min, at 4° C.) and the supernatants were used for the enzyme activity assays. The Institutional Animal Care and Use Committee of the University of Kuopio and by the Provincial Government approved animal experiments. […] Merck (Darmstadt, Germany).

[2] = test system: syngenic and UKU181 transgenic mice; experiment: Plasma α-amylase and ALAT in syngenic and transgenic mice after analogue injection; assay type: in vivo, mouse
Experimental: α-methylspermidine, Bis-α-methylspermine and α-methylspermine were administered in saline. […] The data are expressed as means ±S.D. For statistical analysis, the two-tailed Student's t test was used.

rats = experiment: Toxicity of spermine derivatives in rats (deaths); assay type: in vivo, rat; details: 50 mg/kg twice/24 h
Description: It is likely to be the case with the methylated analogues as well.

[3] = transgenic rats, 24 h regenerating liver, 25 mg/kg 20 and 4 h before operation
[4] = Sg (syngenic) mice, 12.5 mg/kg, 24 h before sacrifice
[5] = Sg (syngenic) mice, 25 mg/kg, 24 h before sacrifice
[6] = Sg (syngenic) mice, 37.5 mg/kg, 24 h before sacrifice
[7] = Sg (syngenic) mice, 50 mg/kg, 24 h before sacrifice
[8] = Tg (transgenic) mice, 12.5 mg/kg, 24 h before sacrifice
[9] = Tg (transgenic) mice, 25 mg/kg, 24 h before sacrifice
[10] = Tg (transgenic) mice, 37.5 mg/kg, 24 h before sacrifice
[11] = Tg (transgenic) mice, 50 mg/kg, 24 h before sacrifice
[12] = transgenic rats, 24 h regenerating liver, 5 mg/kg 20 and 4 h before operation

With CC(N)CCNCCCCNCCC(C)N (stereo not drawn) [bis-α-methylspermine, 1,12-dimethylspermine] the “Me2-Spm (liver)” value [1, 3] was 381 ± 124 pmoles/mg tissue wet weight, the “Me-Spd (liver)” value [1, 3] was 154 ± 6 pmoles/mg tissue wet weight and the “Put (liver)” value [1, 3] was 4400 ± 275^a pmoles/mg tissue wet weight. For the same compound, the “Spd (liver)” value [1, 3] was 266 ± 55^a pmoles/mg tissue wet weight, the “Spm (liver)” value [1, 3] was 6 ± 8^a pmoles/mg tissue wet weight and the “metabolic stability / conversion in the liver in vivo” value (shortened to “metabolic stability / conversion”) (SSAT transgenic rats; 25 mg/kg i.p. twice) was “converted to α-methylspermidine, but less effectively than α-methylspermine”. The “conversion to α-methylspermidine in the liver” value (SSAT transgenic rats) was “totally prevented”, the “Plasma ALAT” value [2, 4] was 49.33 U/dm^3 and the “Plasma α-amylase” value [2, 4] was 3167.33 U/dm^3. For the same compound, the “Plasma ALAT” value [2, 5] was 57.67 U/dm^3, the “Plasma α-amylase” value [2, 5] was 2931.00 U/dm^3 and the “Plasma ALAT” value [2, 6] was 35.67 U/dm^3. The “Plasma α-amylase” value [2, 6] was 2827.00 U/dm^3, the “Plasma ALAT” value [2, 7] was 62.00 U/dm^3 and the “Plasma α-amylase” value [2, 7] was 2715.33 U/dm^3. For the same compound, the “Plasma ALAT” value [2, 8] was 50.67 U/dm^3, the “Plasma α-amylase” value [2, 8] was 2822.67 U/dm^3 and the “Plasma ALAT” value [2, 9] was 45.33 U/dm^3. The “Plasma α-amylase” value [2, 9] was 3242.33 U/dm^3, the “Plasma ALAT” value [2, 10] was 31.00 U/dm^3 and the “Plasma α-amylase” value [2, 10] was 2540.00 U/dm^3. For the same compound, the “Plasma ALAT” value [2, 11] was 60.00 U/dm^3, the “Plasma α-amylase” value [2, 11] was 2886.00 U/dm^3 and the deaths (rats) was “a number of rats died”.

With CC(N)CCNCCCCN (stereo not drawn) [α-methylspermidine, 1-methylspermidine] the “hepatic spermidine and spermine concentrations” value ([1]; 24 h after partial hepatectomy, 50 mg/kg 3 h before) was “little effect on hepatic spermidine and spermine concentrations”, the “accumulation of the analogue in liver” value ([1]; normal and transgenic rats, 50 mg/kg 3 h before partial hepatectomy) was “effectively accumulated in normal and transgenic liver” and the hepatic putrescine pool ([1]; transgenic rats, 24 h after partial hepatectomy, 50 mg/kg 3 h before) was “strikingly increased in response to the analogue”. The “Me-Spd (liver)” value [1, 12] was 462 ± 41 pmoles/mg tissue wet weight, the “Put (liver)” value [1, 12] was 4540 ± 690^a pmoles/mg tissue wet weight and the “Spd (liver)” value [1, 12] was 183 ± 47^a pmoles/mg tissue wet weight. For the same compound, the “Spm (liver)” value [1, 12] was 18 ± 5^a pmoles/mg tissue wet weight, the “Me-Spd (liver)” value [1, 3] was 864 ± 166 pmoles/mg tissue wet weight and the “Put (liver)” value [1, 3] was 3570 ± 596^a pmoles/mg tissue wet weight. The “Spd (liver)” value [1, 3] was 281 ± 107^a pmoles/mg tissue wet weight, the “Spm (liver)” value [1, 3] was 40 ± 24^a pmoles/mg tissue wet weight and the “hepatic SSAT activity” value ([1]; transgenic rats, single dose 3 h prior to partial hepatectomy, 24 h postoperatively) was 7520±3000 pmol/mg/10 min. The “accumulation in the liver (tissue concentration)” value (SSAT transgenic rats; 25 mg/kg i.p. twice) was “highest tissue concentrations”, the “metabolic stability / conversion” value (SSAT transgenic rats; 25 mg/kg i.p. twice) was “metabolically stable” and the “Plasma ALAT” value ([2]; Sg mice, 50 mg/kg, 24 h) was 17.90 U/dm^3. For the same compound, the “Plasma α-amylase” value ([2]; Sg mice, 50 mg/kg, 24 h, not corrected constant) was 266.76 ± 23.00 ^+ U/dm^3, the “Plasma ALAT” value ([2]; Sg mice, 100 mg/kg, 24 h) was 19.21 U/dm^3 and the “Plasma α-amylase” value ([2]; Sg mice, 100 mg/kg, 24 h, not corrected constant) was 281.81 ± 24.11 U/dm^3. For the same compound, the “Plasma ALAT” value ([2]; Sg mice, 150 mg/kg, 24 h) was 18.33 U/dm^3, the “Plasma α-amylase” value ([2]; Sg mice, 150 mg/kg, 24 h, not corrected constant) was 284.83 ± 26.90 U/dm^3 and the “Plasma ALAT” value ([2]; Sg mice, 250 mg/kg, 24 h) was 66.00 U/dm^3. The “Plasma α-amylase” value ([2]; Sg mice, 250 mg/kg, 24 h, not corrected constant) was 287.41 ± 74.99 U/dm^3, the “Plasma ALAT” value ([2]; Sg mice, 375 mg/kg, 24 h) was 111.39 U/dm^3 and the “Plasma α-amylase” value ([2]; Sg mice, 375 mg/kg, 24 h, not corrected constant) was 654.32 ± 402.95 U/dm^3. For the same compound, the “Plasma ALAT” value ([2]; Sg mice, 500 mg/kg, 24 h) was 32.74 U/dm^3, the “Plasma α-amylase” value ([2]; Sg mice, 500 mg/kg, 24 h, not corrected constant) was 370.45 ± 104.58 U/dm^3 and the “Plasma ALAT” value ([2]; Tg mice, 50 mg/kg, 24 h) was 34.92 U/dm^3. For the same compound, the “Plasma α-amylase” value ([2]; Tg mice, 50 mg/kg, 24 h, not corrected constant) was 341.62 ± 44.99 U/dm^3, the “Plasma ALAT” value ([2]; Tg mice, 100 mg/kg, 24 h) was 44.96 U/dm^3 and the “Plasma α-amylase” value ([2]; Tg mice, 100 mg/kg, 24 h, not corrected constant) was 302.90 ± 29.54 U/dm^3. For the same compound, the “Plasma ALAT” value ([2]; Tg mice, 150 mg/kg, 24 h) was 41.90 U/dm^3, the “Plasma α-amylase” value ([2]; Tg mice, 150 mg/kg, 24 h, not corrected constant) was 275.79 ± 34.37 U/dm^3 and the “Plasma ALAT” value ([2]; Tg mice, 250 mg/kg, 24 h) was 34.05 U/dm^3. For the same compound, the “Plasma α-amylase” value ([2]; Tg mice, 250 mg/kg, 24 h, not corrected constant) was 389.38 ± 213.31 U/dm^3, the “Plasma ALAT” value ([2]; Tg mice, 375 mg/kg, 24 h) was 52.38 U/dm^3 and the “Plasma α-amylase” value ([2]; Tg mice, 375 mg/kg, 24 h, not corrected constant) was 314.51 ± 20.72 U/dm^3.

For CC(N)CCNCCCCNCCCN (stereo not drawn) [α-methylspermine, 1-methylspermine], the “metabolic stability / conversion” value (SSAT transgenic rats; 25 mg/kg i.p. twice) was “effectively converted to α-methylspermidine”, the “conversion to α-methylspermidine in the liver” value (SSAT transgenic rats) was “markedly inhibited” and the “Plasma ALAT” value [2, 4] was 54.33 ± 4.16 U/dm^3. The “Plasma α-amylase” value [2, 4] was 2352.00 ± 206.37 U/dm^3, the “Plasma ALAT” value [2, 5] was 43.67 ± 4.04 U/dm^3 and the “Plasma α-amylase” value [2, 5] was 2645.67 ± 161.87 ^+ U/dm^3. The “Plasma ALAT” value [2, 6] was 47.67 ± 13.43 U/dm^3, the “Plasma α-amylase” value [2, 6] was 2610.67 ± 144.67 U/dm^3 and the “Plasma ALAT” value [2, 7] was 49.00 ± 2.83 U/dm^3. The “Plasma α-amylase” value [2, 7] was 2512.33 ± 275.71 U/dm^3, the “Plasma ALAT” value [2, 8] was 58.67 ± 7.77 U/dm^3 and the “Plasma α-amylase” value [2, 8] was 2675.67 ± 305.64 U/dm^3. The “Plasma ALAT” value [2, 9] was 44.67 ± 5.69 U/dm^3, the “Plasma α-amylase” value [2, 9] was 2044.67 ± 112.93 U/dm^3 and the “Plasma ALAT” value [2, 10] was 37.00 ± 2.83 U/dm^3. The “Plasma α-amylase” value [2, 10] was 2450.00 ± 410.12 U/dm^3, the “Plasma ALAT” value [2, 11] was 41.33 ± 3.79 U/dm^3 and the “Plasma α-amylase” value [2, 11] was 2667.00 ± 297.24 U/dm^3. For the same compound, the deaths (rats) was “a number of rats died”.

Reference: patent US7202280B2, “Methods for the treatment and prevention of pancreatitis and for induction of liver regeneration” (priority 2002, dated 2007)
